Where two headings read alike, the source gives them in different places.
What was measured:
serotonin transporter = molecular target: T1, serotonin transporter (Rattus norvegicus, UniProt P31652); assay: Serotonin transporter affinity, 3H-paroxetine binding to frontal cortical membranes; parameters: species or system male Sprague-Dawley rats
T1 construct: from tissue; host or cells: frontal cortex of male Sprague-Dawley rats
Method: Briefly, frontal cortical membranes prepared from male Sprague-Dawley rats were incubated with ^3H-paroxetine (0.1 nM) for 60 minutes at 25°C. […] All reactions are terminated by the addition of ice cold Tris buffer followed by rapid filtration using a Tom Tech filtration device to separate bound from free ^3H-paroxetine.

[1] = molecular target: T2, human 5-HT1A receptor subtype (Homo sapiens, UniProt P08908); assay: 5-HT1A receptor binding assay with [3H]8-OH-DPAT on CHO cell membranes; conditions: [3H]8-OH-DPAT 1.5 nM
T2 construct: expressed in transfected cells
T2 sequence (P08908 1-422): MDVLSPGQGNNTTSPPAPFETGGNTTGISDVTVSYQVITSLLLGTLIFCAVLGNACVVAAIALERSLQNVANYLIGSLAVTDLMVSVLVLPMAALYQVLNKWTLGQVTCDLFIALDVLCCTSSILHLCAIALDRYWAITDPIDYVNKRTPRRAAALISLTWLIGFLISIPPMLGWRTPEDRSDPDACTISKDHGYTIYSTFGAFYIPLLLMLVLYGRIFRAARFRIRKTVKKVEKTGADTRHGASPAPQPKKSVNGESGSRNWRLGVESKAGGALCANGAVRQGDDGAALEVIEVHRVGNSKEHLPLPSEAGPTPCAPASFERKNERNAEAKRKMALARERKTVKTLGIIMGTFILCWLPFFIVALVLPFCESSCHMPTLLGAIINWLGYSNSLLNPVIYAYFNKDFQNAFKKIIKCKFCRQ
Method: (§1) The PCR cloning of the human 5-HT1A receptor subtype from a human genomic library has been described previously Chanda et al., Mol. Pharmacol., 43:516 (1993). A stable Chinese hamster ovary cell line expressing the human 5-HT1A receptor subtype (5-HT1A.CHO cells) was employed throughout this study. Cells were maintained in DMEM supplemented with 10% foetal calf serum, non-essential amino acids and penicillin/ streptomycin.
Cells were grown to 95-100% confluency as a monolayer before membranes were harvested for binding studies. Cells were gently scraped from the culture plates, transferred to centrifuge tubes, and washed twice by centrifugation (2000 rpm for 10 min., 4°C) in buffer (50 mM Tris; pH 7.5). The resulting pellets were aliquoted and placed at -80°C. On the day of assay, the cells were thawed on ice, and resuspended in buffer. Studies were conducted using [^3H]8-OH-DPAT as the radioligand. The binding assay was performed in 96 well microtiter plates in a final total volume of 250 µL of buffer. Competition experiments were performed by using 7 concentrations of unlabelled drug and a final ligand concentration of 1.5 nM. Nonspecific binding was determined in the presence of 10 µM 5HT. Saturation analysis was conducted by using [^3H]8-OH-DPAT at concentrations ranging from 0.3-30 nM. Following a 30 minute incubation at room temperature, the reaction was terminated by the addition of ice cold buffer and rapid filtration using a M-96 Brandel Cell Harvester (Gaithersburg, MD) through a GF/B filter presoaked for 30 minutes in 0.5% polyethyleneimine.

[2] = molecular target: T3, 5-HT1A cloned receptor membrane fragments (Homo sapiens, UniProt P08908); assay: [35S]-GTPγS binding assay; format: biochemical; conditions: value in brackets, or a lone % in the cell; maximum agonist response defined by excess 8-OH-DPAT; read-out: GTPγS (%EMax)
T3 construct: expressed in transfected cells
T3 sequence (P08908 1-422): T2 sequence (P08908 1-422)
Method: The [^35S]-GTPγS binding assay was similar to that used by Lazareno and Birdsall, Br. J. Pharmacol. 109:1120 (1993). Briefly, 5-HT1A cloned receptor membrane fragments (as used for 5-HT1A receptor binding assays) were stored at -70°C until needed. When needed, membranes were rapidly thawed, centrifuged at 40,000 x g for 10 minutes and resuspended at 4 °C for 10 minutes in assay buffer (25 mM HEPES, 3 mM MgCl2, 100 mM NaCl, 1 mM EDTA, 10 uM GDP, […], pH 8.0). These membranes were then incubated for 30 minutes at 30°C with [^35S]GTPgS (1 nM) in the presence of vehicle, test compound (one to eight concentrations), or excess 8-OH-DPAT to define maximum agonist response. All reactions are terminated by the addition of ice cold Tris buffer followed by rapid filtration using a Tom Tech® filtration device to separate bound from free [^35S]GTPgS. Agonists produce an increase in the amount of [^35S]GTPgS bound whereas antagonists produce no increase in binding. Bound radioactivity was counted and analyzed as above.

[3] = molecular target: T4, human 5-HT1A receptor subtype (5-HT1A.CHO cells) (Homo sapiens, UniProt P08908); assay: cAMP formation in forskolin-treated cells (cAMP SPA assay); format: cell-based; conditions: value in brackets; forskolin 1 uM
T4 construct: expressed in transfected cells
T4 sequence (P08908 1-422): T2 sequence (P08908 1-422)
Method: as §1
The following assays were performed by incubating the cells with DMEM containing 25 mM HEPES, 5 mM theophylline and 10 µM pargyline for a period of 20 minutes at 37°C. Functional activity was assessed by treating the cells with forskolin (1 uM final concentration) followed immediately by test compound (6 concentrations) for an additional 10 minutes at 37°C. In separate experiments, 6 concentrations of antagonist were preincubated for 20 minutes prior to the addition of 10 nM 8-OH-DPAT and forskolin. The reaction was terminated by removal of the media and addition of 0.5 ml ice cold assay buffer. Plates were stored at -20°C prior to assessment of cAMP formation by a cAMP SPA assay (Amersham).

[4] = 3H-paroxetine 0.1 nM, rat frontal cortical membranes, read-out: ST (Kj, nM,)

T1 sequence (P31652 whole entry): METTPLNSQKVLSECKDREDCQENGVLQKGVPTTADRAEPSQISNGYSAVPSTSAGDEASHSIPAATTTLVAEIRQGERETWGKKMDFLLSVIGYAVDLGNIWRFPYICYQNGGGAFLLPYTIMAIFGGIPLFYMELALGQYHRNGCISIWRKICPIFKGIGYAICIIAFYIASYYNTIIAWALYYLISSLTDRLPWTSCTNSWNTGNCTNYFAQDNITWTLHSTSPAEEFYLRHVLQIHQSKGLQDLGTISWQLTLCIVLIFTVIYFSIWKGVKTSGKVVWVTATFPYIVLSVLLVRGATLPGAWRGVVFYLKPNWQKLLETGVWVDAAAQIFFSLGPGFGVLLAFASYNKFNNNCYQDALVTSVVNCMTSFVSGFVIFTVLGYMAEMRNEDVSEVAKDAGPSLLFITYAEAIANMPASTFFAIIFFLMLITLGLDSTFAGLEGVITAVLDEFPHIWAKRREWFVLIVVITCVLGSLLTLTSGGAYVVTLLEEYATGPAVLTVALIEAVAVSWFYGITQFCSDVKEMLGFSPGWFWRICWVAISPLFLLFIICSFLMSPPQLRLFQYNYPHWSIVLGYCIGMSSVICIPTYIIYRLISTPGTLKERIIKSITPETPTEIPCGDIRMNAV

Ki [1] | Ki (serotonin transporter; [4]) | Emax [2] | Emax [3] | SMILES | Ki (serotonin transporter)
80.7 nM | 4.96 nM | 0% | 0% | COc1ccc(F)cc1N1CCN([C@H]2CC[C@@H](c3c[nH]c4ccc(F)cc43)CC2)CC1 [Example 22a, 5-Fluoro-3-{(cis)-4-[4-(5-fluoro-2-methoxy-phenyl)-piperazin-1-yl]-cyclohexyl}-1H-indole] | –
11.6 nM | 36.5 nM | 4.5% | 0% | COc1ccc(F)cc1N1CCN([C@H]2CC[C@H](c3c[nH]c4ccc(F)cc43)CC2)CC1 [Example 22b, 5-Fluoro-3-{(trans)-4-[4-(5-fluoro-2-methoxy-phenyl)-piperazin-1-yl]-cyclohexyl}-1H-indole] | –

Second part, the molecule before the results:

SMILES | Ki [1] | Ki (serotonin transporter; [4]) | Emax [2] | Emax [3] | Ki (serotonin transporter)
Cn1cc([C@H]2CC[C@@H](N3CCN(c4cccc5[nH]ccc45)CC3)CC2)c2cc(F)ccc21 [Example 38, 5-Fluoro-3-{cis-4-[4-(1H-indol-4-yl)-piperazinyl]-cyclohexyl}-1-methyl-1H-indole] | – | – | – | – | 7.22 nM
COc1ccccc1N1CCN(C2CC=C(c3c[nH]c4ccc(F)cc34)CC2)CC1 (stereo not drawn) [Example 35, 5-Fluoro-3-{4-[4-(2-methoxy-phenyl)-piperazin-1-yl]cyclohex-1-enyl}-1H-indole] | 70.1 nM | 91 nM | – | – | –
Clc1ccc2[nH]cc([C@H]3CC[C@@H](N4CCN(c5cccc6[nH]ccc56)CC4)CC3)c2c1 [Example 6a, 5-Chloro-3-[cis-4-[4-(1H-indol-4-yl)-1-piperazinyl]cyclohexyl]-1H-indole] | 326 nM | 28 nM | 53% | 80% | –
Fc1cc2c(c(N3CCN([C@H]4CC[C@@H](c5c[nH]c6ccc(F)cc65)CC4)CC3)c1)OCCC2 [Example 31a, 5-Fluoro-3-{(1,4-cis)-4-[4-(6-fluoro-chroman-8-yl)-piperazin-1-yl]-cyclohexyl}-1H-indole] | 142 nM | – | – | – | 13 nM
N#Cc1ccc2[nH]cc(C3=CCC(N4CCN(c5cccc6[nH]ccc56)CC4)CC3)c2c1 (stereo not drawn) [Example 36, 3-{4-[4-(1H-Indol-4-yl)-piperazin-1-yl]-cyclohex-1-enyl}-1H-indole-5-carbonitrile] | 12.3 nM | 28 nM | 53% | 80% | –
Cn1ccc2c(N3CCN([C@H]4CC[C@@H](c5cn(C)c6cc(F)ccc65)CC4)CC3)cccc21 [Example 11, 6-Fluoro-1-methyl-3-{cis-4-[4-(1-methyl-1H-indol-4-yl)-1-piperazinyl]cyclohexyl}-1H-indole] | – | 40 nM | – | – | –
COc1ccccc1N1CCN([C@H]2CC[C@@H](c3c[nH]c4ccc(F)cc43)CC2)CC1 [Example 18, 5-Fluoro-3-{(cis)-4-[4-(2-methoxy-phenyl)-piperazin-1-yl] -cyclohexyl}-1H-indole] | 129 nM | 1.36 nM | – | – | –

From patent EP1147083B1, “ARYLPIPERAZINYL-CYCLOHEXYL INDOLE DERIVATIVES FOR THE TREATMENT OF DEPRESSION” (Wyeth, priority 1999, dated 2000)
